Test results as given in ChEMBL document CHEMBL1201862, “PubChem BioAssay data set” (2004).
Active and inactive are the calls of the source.

What was measured:
[1] = Vero cell cytotoxicity, dose response, cytotoxicity control for M. tuberculosis growth inhibitor project, Vero cells, purified and synthesized compounds, set 4 (AID 504854); format: functional; conditions: Mycobacterium tuberculosis
[2] = target: T1, Orexin/Hypocretin receptor type 1 (Homo sapiens, UniProt O43613); assay: Homogeneous Time Resolved Fluorescence (HTRF)-based cell-based high throughput dose response assay for antagonists of the orexin 1 receptor (OX1R; HCRTR1). [Related pubchem assays (depositor defined):AID434989, AID435008, AID463079, AID485270, AID492963, AID492964, AID492965, AID493232, AID504717, AID504718]; format: functional
Orexin receptor type 2 [3] = target: T2, Orexin receptor type 2 (Homo sapiens, UniProt O43614); assay: Counterscreen assay for antagonists of the orexin 1 receptor (OX1R; HCRTR1): Homogeneous Time Resolved Fluorescence (HTRF)-based cell-based dose response assay for antagonists of the orexin 2 receptor (OX2R; HCRTR2), run by assay provider.; format: functional
[4] = (§1) Counterscreen for antagonists of the orexin 1 receptor (OX1R; HCRTR1): Fluorescence-based cell-based high throughput dose response assay to identify antagonists of the parental CHO cell line. [Related pubchem assays (depositor defined):AID434989, AID435008, AID463079, AID485270, AID492963, AID492964, AID492965, AID493232, AID504699, AID504701]; format: functional
[5] = system: Streptococcus sp. 'group A'; assay: Streptococcus pyogenes SK(-)GAS viability under kanamycin – luminescence, BacTiterGlo, confirmation, counter-screen for streptokinase expression inhibitor project, dose response (AID 1900); format: functional, organism-based
Streptococcus = assay: GAS UMAA2166 growth inhibition – luminescence, BacTiterGlo, counter-screen for streptokinase expression inhibitor project, dose response (AID 1915); format: functional, organism-based;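 also: potency for reduction of bacterial viability or growth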
[6] = target: T1, Orexin/Hypocretin receptor type 1; assay: Fluorescence-based cell-based high throughput dose response assay for antagonists of the orexin 1 receptor (OX1R; HCRTR1). [Related pubchem assays (depositor defined):AID434989, AID435008, AID463079, AID485270, AID492963, AID492964, AID492965, AID493232, AID504717, AID504718]; format: functional
Orexin receptor type 2 [7] = target: T2, Orexin receptor type 2; assay: Counterscreen assay for antagonists of the orexin 1 receptor (OX1R; HCRTR1): Fluorescence-based cell-based dose response assay for antagonists of the orexin 2 receptor (OX2R; HCRTR2), run by assay provider.; format: functional
CHO-K1 = assay: as §1, with “Homogeneous time resolved fluorescence (HTRF)-based” for “Fluorescence-based”, “cell-based” for “cell-based high throughput”, “CHO-K1” for “CHO”; format: functional; conditions: Cricetulus griseus;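 also: potency for inhibition of ATP-stimulated IP1 production as antagonists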
[8] = target: T3, Acyl-homoserine lactone acylase PvdQ (Pseudomonas aeruginosa (strain LESB58), UniProt Q9I194); assay: PvdQ acylase enzyme activity blockers – biochemical, fluorescence, plate reader and imaging, cherry-picks, dose response (AID 493231)
T3 sequence (Q9I194 whole entry): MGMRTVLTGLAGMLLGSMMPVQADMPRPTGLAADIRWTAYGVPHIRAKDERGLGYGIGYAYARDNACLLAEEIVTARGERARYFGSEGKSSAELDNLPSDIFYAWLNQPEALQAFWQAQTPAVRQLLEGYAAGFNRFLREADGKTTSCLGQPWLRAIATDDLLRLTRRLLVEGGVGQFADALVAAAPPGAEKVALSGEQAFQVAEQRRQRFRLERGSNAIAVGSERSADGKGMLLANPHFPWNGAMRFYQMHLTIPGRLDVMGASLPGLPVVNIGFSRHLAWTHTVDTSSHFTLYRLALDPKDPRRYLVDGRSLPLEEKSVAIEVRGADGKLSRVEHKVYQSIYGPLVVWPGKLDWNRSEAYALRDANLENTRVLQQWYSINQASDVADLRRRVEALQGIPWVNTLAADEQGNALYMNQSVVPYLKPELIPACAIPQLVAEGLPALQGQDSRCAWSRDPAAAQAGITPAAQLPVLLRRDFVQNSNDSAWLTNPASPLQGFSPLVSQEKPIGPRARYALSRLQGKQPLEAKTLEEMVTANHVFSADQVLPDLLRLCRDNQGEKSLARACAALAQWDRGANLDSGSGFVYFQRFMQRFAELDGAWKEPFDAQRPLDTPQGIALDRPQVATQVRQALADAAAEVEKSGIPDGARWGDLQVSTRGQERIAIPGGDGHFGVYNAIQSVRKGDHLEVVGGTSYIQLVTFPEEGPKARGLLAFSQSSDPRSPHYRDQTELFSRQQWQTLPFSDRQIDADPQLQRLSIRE

[9] = target: Latent membrane protein 1 (Human herpesvirus 4 (strain B95-8), UniProt P03230); assay: LMP1 TES1 pathway selectivity over dsRED control – imaging, HEK293T, dual-color eGFP/dsRED, cherry-picks, selectivity assay for LMP1 NF-kB inhibitor project, dose response (AID 588398); format: functional, cell-based
HEK293 = assay: EBV LMP1 TES2 canonical NF-kB signalling blockers – cell-based, HEK293, luciferase, cherry-pick, dose response (AID 588343); format: functional; conditions: Homo sapiens

T2 sequence (O43614 whole entry): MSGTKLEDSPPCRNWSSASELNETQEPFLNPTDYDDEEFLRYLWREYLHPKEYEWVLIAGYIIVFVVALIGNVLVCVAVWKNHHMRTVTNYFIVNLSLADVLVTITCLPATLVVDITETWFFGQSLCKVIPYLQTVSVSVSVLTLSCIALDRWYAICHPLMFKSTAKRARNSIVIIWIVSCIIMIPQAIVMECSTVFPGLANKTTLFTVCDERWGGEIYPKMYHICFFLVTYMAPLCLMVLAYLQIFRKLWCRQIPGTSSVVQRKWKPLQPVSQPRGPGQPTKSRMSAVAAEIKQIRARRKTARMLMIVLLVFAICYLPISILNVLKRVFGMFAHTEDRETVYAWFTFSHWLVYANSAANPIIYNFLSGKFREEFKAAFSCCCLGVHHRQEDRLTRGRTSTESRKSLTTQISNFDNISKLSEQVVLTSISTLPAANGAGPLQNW
T1 sequence (O43613 whole entry): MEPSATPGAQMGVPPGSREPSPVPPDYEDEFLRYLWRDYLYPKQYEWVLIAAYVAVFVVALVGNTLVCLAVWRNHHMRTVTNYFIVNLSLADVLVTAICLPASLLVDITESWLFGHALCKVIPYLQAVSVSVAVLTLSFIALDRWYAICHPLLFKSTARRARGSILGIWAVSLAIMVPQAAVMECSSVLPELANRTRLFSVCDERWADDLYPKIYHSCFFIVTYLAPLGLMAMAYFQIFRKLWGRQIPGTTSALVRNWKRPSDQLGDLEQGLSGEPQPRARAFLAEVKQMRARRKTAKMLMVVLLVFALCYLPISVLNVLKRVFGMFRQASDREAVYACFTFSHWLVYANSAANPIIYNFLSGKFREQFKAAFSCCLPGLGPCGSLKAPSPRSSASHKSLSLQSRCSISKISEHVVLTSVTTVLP
Sequence of Latent membrane protein 1 (P03230 whole entry): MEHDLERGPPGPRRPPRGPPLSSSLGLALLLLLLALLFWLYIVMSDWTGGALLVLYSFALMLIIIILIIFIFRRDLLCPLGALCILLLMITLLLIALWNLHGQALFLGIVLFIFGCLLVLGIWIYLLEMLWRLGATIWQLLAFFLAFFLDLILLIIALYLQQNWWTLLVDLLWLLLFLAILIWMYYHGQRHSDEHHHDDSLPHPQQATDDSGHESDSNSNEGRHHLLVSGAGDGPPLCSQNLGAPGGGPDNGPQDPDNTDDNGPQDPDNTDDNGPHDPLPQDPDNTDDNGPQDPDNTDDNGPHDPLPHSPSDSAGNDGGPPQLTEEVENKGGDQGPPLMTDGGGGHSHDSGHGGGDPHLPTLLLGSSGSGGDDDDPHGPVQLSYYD

CCC(Sc1nc(O)c2c(n1)CCC2)C(=O)Nc1cccc(OC)c1 (configuration not stated)
active: CC50 [1] > 100 µM

CCSc1nnc(NC(=O)c2ccc3ccccc3n2)s1
inactive: IC50 (Orexin receptor type 2 [3]) > 50 µM | IC50 [4] > 49.7 µM | IC50 (Orexin receptor type 2 [7]) > 88.8 µM | IC50 (CHO-K1) > 66.2 µM
active: IC50 [2] 2.67 µM | EC50 [5] 2.08 µM | EC50 (Streptococcus) 6.46 µM | IC50 [6] 6.86 µM

Cc1cc(NC(=O)c2ccc3c(c2)OCCO3)no1
active: AC50 [8] 49.6 µM | AC50 [9] 32.7 µM | AC50 (HEK293) 4.15 µM
